The structures appear in SMILES notation.

Data set [1] can be described thus: Inhibition of PDE6.
Data set [2] addresses 3',5'-cyclic-AMP phosphodiesterase 7B (Homo sapiens, UniProt Q9NP56). In words: Inhibition of PDE7b.
Data set [3] can be described thus: Inhibition of PDE11.
The target of data set [4] is 3',5'-cyclic-AMP phosphodiesterase 4A (Homo sapiens, UniProt P27815). In words: Inhibition of PDE4a.
Data set [5] deals with Mus musculus. In words: Free plasma concentration at terminal bleed in ob/ob mouse at 250 mg/kg, po administered by subchronic dosing for 4 days after 3 hrs of last dose.
Data set [6] deals with Mus musculus. In words: Reduction of glucose level in ob/ob mouse at 250 mg/kg, po administered by subchronic dosing for 4 days (RVb 406 mg/dl). It counts as functional. Details: scale not given: the % may be the effect or the level left.
The subject of data set [7] is Mus musculus. The data set is described as follows: Reduction of insulin level in ob/ob mouse at 100 mg/kg, po administered by subchronic dosing for 4 days (RVb 23 ng/mL). Type of data set: functional. More on the design: scale not given: the % may be the effect or the level left.
The target in data set [8] is High affinity cAMP-specific and IBMX-insensitive 3',5'-cyclic phosphodiesterase 8A (Homo sapiens, UniProt O60658). In words: Inhibition of PDE8a.
Data set [9] concerns Mus musculus. In words: Reduction of insulin level in ob/ob mouse at 250 mg/kg, po administered by subchronic dosing for 4 days (RVb 23 ng/mL). Type of data set: functional. More on the design: scale not given: the % may be the effect or the level left.
For data set [10], the target named is cGMP-specific 3',5'-cyclic phosphodiesterase (Homo sapiens, UniProt O76074). In words: Inhibition of PDE5.
Data set [11] concerns the target cGMP-inhibited 3',5'-cyclic phosphodiesterase 3B (Homo sapiens, UniProt Q13370). The data set is described as follows: Inhibition of PDE3b.
Data set [12] concerns Mus musculus. In words: Reduction of body weight in ob/ob mouse at 250 mg/kg, po administered by subchronic dosing for 4 days (RVb 44 g). Type of data set: functional. More on the design: scale not given: the % may be the effect or the level left.
For data set [13], the system named is Mus musculus. In words: Reduction of glucose level in ob/ob mouse at 500 mg/kg, po administered by subchronic dosing for 4 days (RVb 406 mg/dl). It counts as functional. Details: scale not given: the % may be the effect or the level left.
A short description of data set [14]: Inhibition of PDE2.
The target in data set [15] is High affinity cGMP-specific 3',5'-cyclic phosphodiesterase 9A (Homo sapiens, UniProt O76083). In words: Inhibition of human recombinant PDE9 expressed in SF9 cells by scintillation proximity assay. For orientation: SPA uses beads or plates that emit light when radiolabelled molecules are held near them.
Data set [16] is described as follows: Inhibition of PDE10.
Data set [17] concerns the target High affinity 3',5'-cyclic-AMP phosphodiesterase 7A (Homo sapiens, UniProt Q13946). The data set is described as follows: Inhibition of PDE7a.
For data set [18], the system named is Mus musculus. In words: Reduction of glucose level in ob/ob mouse at 100 mg/kg, po administered by subchronic dosing for 4 days relative to control (RVb 406 mg/dl). It counts as functional. Details: scale not given: the % may be the effect or the level left.
In data set [19] the test system is Mus musculus. In words: Reduction of insulin level in ob/ob mouse at 500 mg/kg, po administered by subchronic dosing for 4 days (RVb 23 ng/mL). It counts as functional. More on the design: scale not given: the % may be the effect or the level left.
For data set [20], the system named is Mus musculus. The data set is described as follows: Reduction of body weight in ob/ob mouse at 500 mg/kg, po administered by subchronic dosing for 4 days (RVb 44 g). It counts as functional. More on the design: scale not given: the % may be the effect or the level left.
In data set [21] the test system is Mus musculus. The data set is described as follows: Free plasma concentration at terminal bleed in ob/ob mouse at 500 mg/kg, po administered by subchronic dosing for 4 days after 3 hrs of last dose.
For data set [22], the target named is 3',5'-cyclic-AMP phosphodiesterase 4D (Homo sapiens, UniProt Q08499). The data set is described as follows: Inhibition of PDE4d.
Data set [23] addresses High affinity cAMP-specific and IBMX-insensitive 3',5'-cyclic phosphodiesterase 8B (Homo sapiens, UniProt O95263). The data set is described as follows: Inhibition of PDE8b.
For data set [24], the system named is Mus musculus. In words: Free plasma concentration at terminal bleed in ob/ob mouse at 100 mg/kg, po administered by subchronic dosing for 4 days after 3 hrs of last dose.
Data set [25] addresses cGMP-inhibited 3',5'-cyclic phosphodiesterase 3A (Homo sapiens, UniProt Q14432). The data set is described as follows: Inhibition of PDE3a.
Data set [26] addresses 3',5'-cyclic-AMP phosphodiesterase 4B (Homo sapiens, UniProt Q07343). The data set is described as follows: Inhibition of PDE4b.
The target in data set [27] is Dual specificity calcium/calmodulin-dependent 3',5'-cyclic nucleotide phosphodiesterase 1A (Homo sapiens, UniProt P54750). In words: Inhibition of PDE1a.
Data set [28] addresses 3',5'-cyclic-AMP phosphodiesterase 4C (Homo sapiens, UniProt Q08493). In words: Inhibition of PDE4c.
For data set [29], the target named is Dual specificity calcium/calmodulin-dependent 3',5'-cyclic nucleotide phosphodiesterase 1C (Homo sapiens, UniProt Q14123). In words: Inhibition of PDE1c.
The subject of data set [30] is Mus musculus. The data set is described as follows: Reduction of body weight in ob/ob mouse at 100 mg/kg, po administered by subchronic dosing for 4 days (RVb 44 g). It counts as functional. Details: scale not given: the % may be the effect or the level left.
For data set [31], the target named is Dual specificity calcium/calmodulin-dependent 3',5'-cyclic nucleotide phosphodiesterase 1B (Homo sapiens, UniProt Q01064). In words: Inhibition of PDE1b.
The nature of a further data set: in vivo. Conditions: rat.
Data set [32] is described as follows: Oral bioavailability in rat. The settings on record: in vivo.
Data set [33] can be described thus: Volume of distribution at steady state in rat. Conditions: in vivo.
Data set [34] is described as follows: Apparent permeability across MDCK cells. Conditions: dog.

Sequence of High affinity 3',5'-cyclic-AMP phosphodiesterase 7A (Q13946 whole entry): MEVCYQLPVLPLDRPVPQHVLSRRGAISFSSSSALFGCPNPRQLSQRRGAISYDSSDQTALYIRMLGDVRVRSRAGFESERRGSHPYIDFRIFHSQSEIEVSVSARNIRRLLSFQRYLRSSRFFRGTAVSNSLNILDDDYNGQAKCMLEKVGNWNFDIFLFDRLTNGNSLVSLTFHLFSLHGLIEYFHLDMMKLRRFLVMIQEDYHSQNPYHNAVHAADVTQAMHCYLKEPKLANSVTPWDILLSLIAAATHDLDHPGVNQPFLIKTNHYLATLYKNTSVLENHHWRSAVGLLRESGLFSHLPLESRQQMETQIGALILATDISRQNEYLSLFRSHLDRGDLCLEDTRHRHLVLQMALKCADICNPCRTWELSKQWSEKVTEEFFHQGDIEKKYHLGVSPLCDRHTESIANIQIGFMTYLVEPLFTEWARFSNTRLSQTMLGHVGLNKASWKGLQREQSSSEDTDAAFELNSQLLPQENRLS
Sequence of Dual specificity calcium/calmodulin-dependent 3',5'-cyclic nucleotide phosphodiesterase 1C (Q14123 whole entry): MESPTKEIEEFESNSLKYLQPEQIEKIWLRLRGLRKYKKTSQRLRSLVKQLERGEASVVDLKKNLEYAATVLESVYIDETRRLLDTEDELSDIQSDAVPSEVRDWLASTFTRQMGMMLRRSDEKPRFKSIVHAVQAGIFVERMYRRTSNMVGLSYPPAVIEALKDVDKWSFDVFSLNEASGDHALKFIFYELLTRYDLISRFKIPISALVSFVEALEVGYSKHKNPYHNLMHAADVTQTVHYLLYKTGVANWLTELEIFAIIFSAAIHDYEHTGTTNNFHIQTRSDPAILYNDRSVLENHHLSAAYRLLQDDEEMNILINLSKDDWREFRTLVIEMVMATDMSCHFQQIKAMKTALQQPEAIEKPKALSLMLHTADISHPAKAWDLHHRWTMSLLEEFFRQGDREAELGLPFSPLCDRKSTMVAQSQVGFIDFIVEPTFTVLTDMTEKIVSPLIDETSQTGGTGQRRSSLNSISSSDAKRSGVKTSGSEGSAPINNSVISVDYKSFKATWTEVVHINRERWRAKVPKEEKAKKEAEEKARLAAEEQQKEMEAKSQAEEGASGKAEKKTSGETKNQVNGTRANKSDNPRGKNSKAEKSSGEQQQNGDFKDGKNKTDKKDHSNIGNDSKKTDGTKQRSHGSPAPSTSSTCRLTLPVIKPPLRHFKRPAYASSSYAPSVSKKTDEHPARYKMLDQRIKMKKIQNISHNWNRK
Sequence of 3',5'-cyclic-AMP phosphodiesterase 4A (P27815 whole entry): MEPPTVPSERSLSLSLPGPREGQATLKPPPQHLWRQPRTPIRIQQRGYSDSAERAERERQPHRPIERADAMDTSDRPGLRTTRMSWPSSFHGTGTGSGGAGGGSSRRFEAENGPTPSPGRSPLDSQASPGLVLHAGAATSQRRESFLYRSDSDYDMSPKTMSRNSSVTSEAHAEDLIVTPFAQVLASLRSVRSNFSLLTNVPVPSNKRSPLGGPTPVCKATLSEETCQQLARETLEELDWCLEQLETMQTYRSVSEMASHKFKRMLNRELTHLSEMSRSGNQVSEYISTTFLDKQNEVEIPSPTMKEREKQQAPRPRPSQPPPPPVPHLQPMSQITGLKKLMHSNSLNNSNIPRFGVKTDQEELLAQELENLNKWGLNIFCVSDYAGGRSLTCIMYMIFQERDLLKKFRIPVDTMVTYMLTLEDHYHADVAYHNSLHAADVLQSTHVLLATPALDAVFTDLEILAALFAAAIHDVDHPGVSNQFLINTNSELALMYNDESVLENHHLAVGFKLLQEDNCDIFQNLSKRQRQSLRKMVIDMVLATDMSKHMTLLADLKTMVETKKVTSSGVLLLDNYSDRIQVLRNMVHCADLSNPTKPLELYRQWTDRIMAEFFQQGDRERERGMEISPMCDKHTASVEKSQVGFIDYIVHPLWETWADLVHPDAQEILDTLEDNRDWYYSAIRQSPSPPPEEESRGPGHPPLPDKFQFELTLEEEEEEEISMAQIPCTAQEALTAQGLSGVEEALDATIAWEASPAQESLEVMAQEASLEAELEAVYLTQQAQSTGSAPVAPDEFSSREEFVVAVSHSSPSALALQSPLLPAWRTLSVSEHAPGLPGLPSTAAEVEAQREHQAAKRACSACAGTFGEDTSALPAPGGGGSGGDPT
Sequence of 3',5'-cyclic-AMP phosphodiesterase 4C (Q08493 whole entry): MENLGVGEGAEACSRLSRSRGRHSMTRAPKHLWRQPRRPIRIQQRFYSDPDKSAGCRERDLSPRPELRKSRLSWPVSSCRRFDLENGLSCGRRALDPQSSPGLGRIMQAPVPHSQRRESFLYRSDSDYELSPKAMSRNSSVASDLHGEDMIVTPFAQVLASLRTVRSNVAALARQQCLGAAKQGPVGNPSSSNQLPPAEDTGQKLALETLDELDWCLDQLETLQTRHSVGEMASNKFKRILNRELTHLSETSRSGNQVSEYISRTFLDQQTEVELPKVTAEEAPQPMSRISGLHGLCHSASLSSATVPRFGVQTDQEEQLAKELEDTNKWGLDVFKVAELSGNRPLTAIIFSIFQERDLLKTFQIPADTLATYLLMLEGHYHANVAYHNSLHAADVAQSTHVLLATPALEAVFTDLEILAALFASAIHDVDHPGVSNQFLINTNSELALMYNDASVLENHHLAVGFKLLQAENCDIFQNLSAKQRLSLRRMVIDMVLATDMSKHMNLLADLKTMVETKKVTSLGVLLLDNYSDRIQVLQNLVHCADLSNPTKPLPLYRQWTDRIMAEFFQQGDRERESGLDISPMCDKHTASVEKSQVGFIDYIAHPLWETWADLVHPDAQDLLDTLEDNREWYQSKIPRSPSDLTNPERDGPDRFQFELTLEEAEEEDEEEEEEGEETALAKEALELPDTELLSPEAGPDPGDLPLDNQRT
Sequence of Dual specificity calcium/calmodulin-dependent 3',5'-cyclic nucleotide phosphodiesterase 1B (Q01064 whole entry): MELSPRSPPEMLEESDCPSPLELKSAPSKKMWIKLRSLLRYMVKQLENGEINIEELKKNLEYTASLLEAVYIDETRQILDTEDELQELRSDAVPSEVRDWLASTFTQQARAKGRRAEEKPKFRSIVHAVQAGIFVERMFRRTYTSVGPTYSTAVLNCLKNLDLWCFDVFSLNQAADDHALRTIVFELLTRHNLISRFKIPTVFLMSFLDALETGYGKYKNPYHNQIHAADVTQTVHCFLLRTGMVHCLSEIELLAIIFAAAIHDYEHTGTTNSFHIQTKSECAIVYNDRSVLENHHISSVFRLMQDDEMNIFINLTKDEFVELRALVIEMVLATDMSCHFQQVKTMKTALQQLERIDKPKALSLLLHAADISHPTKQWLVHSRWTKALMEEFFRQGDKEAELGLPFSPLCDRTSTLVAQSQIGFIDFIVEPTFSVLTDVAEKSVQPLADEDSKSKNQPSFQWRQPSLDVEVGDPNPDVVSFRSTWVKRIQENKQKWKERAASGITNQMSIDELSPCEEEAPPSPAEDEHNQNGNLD
Sequence of High affinity cAMP-specific and IBMX-insensitive 3',5'-cyclic phosphodiesterase 8B (O95263 whole entry): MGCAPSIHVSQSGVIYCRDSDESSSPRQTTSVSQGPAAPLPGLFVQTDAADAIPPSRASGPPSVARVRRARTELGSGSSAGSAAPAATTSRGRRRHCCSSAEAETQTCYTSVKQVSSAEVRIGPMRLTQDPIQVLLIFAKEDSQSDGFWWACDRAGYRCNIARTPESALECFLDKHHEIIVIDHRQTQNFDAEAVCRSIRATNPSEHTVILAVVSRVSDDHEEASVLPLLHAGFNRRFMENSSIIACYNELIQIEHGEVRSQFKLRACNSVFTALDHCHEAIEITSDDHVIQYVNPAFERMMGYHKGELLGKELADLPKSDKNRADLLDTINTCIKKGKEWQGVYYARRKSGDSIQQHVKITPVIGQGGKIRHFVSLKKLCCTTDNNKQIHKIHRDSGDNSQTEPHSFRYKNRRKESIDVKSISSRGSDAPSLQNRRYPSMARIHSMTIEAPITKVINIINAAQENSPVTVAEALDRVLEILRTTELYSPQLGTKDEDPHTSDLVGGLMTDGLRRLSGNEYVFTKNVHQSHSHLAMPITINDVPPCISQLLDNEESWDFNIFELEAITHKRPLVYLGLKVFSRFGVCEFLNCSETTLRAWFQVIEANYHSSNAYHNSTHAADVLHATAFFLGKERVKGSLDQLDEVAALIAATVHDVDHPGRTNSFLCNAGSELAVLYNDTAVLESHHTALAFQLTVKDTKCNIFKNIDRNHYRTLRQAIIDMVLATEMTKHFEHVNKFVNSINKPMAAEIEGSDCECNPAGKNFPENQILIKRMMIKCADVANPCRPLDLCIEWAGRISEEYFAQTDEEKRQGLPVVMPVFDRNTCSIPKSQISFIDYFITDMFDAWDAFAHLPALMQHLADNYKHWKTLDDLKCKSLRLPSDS
Sequence of High affinity cAMP-specific and IBMX-insensitive 3',5'-cyclic phosphodiesterase 8A (O60658 whole entry): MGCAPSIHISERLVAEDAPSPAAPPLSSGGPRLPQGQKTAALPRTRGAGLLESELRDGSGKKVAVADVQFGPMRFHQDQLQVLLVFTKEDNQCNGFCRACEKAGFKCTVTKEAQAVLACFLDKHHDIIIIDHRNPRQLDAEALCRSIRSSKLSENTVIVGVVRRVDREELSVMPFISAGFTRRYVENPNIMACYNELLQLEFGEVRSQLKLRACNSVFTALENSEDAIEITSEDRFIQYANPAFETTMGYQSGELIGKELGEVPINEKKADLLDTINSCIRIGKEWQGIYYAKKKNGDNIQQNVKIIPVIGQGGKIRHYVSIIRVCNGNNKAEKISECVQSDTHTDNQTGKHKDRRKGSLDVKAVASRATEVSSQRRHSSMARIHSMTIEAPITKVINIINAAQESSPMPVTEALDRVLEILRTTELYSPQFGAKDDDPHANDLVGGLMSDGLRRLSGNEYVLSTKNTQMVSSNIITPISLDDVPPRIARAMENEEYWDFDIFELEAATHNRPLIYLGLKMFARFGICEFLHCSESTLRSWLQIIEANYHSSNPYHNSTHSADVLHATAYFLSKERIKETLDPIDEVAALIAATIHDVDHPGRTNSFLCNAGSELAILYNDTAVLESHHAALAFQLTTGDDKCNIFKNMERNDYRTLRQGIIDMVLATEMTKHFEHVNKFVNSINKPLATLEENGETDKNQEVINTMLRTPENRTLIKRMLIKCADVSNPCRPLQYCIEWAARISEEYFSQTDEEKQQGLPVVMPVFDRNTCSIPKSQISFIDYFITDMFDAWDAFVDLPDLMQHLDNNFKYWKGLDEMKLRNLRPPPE

One may read the IC50 as the concentration at which inhibition is half-maximal. Turning to `CC(C)c1n[nH]c2c(=O)[nH]c(Cc3ccccc3OCCN3CCOCC3)nc12`, the IC50 in data set [1] is > 10000 nM; in [2], > 10000 nM; in data set [3] it was > 10000 nM; in data set [4], > 10000 nM; in [8], > 10000 nM; in data set [10] it was 5200 nM. Also, the half-inhibitory concentration (IC50) is > 10000 nM in data set [11]; 8200 nM in [14]; 41 nM in data set [15]; > 10000 nM in [16]; > 10000 nM in data set [17]; > 10000 nM in [22]. Also, the half-inhibitory concentration (IC50) is > 10000 nM in data set [23]; > 10000 nM in [25]; > 10000 nM in data set [26]; 3900 nM in data set [27]; > 10000 nM in data set [28]; 1130 nM in data set [29]. The IC50 in data set [31] amounted to 4950 nM. The “Cp(f)” value in the data set on Mus musculus [5] (mouse, in vivo, po, 250 mg/kg, 3 h) came to 243 nM; in the data set on Mus musculus [21] (mouse, in vivo, po, 500 mg/kg, 3 h) it was 361 nM; in the data set with Mus musculus [24] (mouse, in vivo, po, 100 mg/kg, 3 h), 140 nM. The Activity is given as -40% in the data set with Mus musculus [6]; -35% in the data set on Mus musculus [7]; -35% in the data set on Mus musculus [9]; -6.4% in the data set with Mus musculus [12]; -55% with Mus musculus [13]; -32% in the data set on Mus musculus [18]. Further, the values for the Activity in the data set with Mus musculus [19], in the data set on Mus musculus [20] and in the data set on Mus musculus [30] were -59%, -11% and -4.3%, respectively.

Usually clearance stands for the rate of elimination divided by the concentration. Broadly, the bioavailability is dose-corrected exposure relative to a reference, in per cent. The term Vd denotes the apparent volume that relates the amount in the body to the concentration in plasma or blood. Compound `CC(C)c1n[nH]c2c(=O)[nH]c(C[C@@H]3CCCC[C@H]3Nc3ncc(C(=O)O)c(C(F)(F)F)n3)nc12` registered a clearance in the data set “in vivo” of 19.8 mL/min/kg. In addition, the IC50 is > 1000 nM in data set [1]; > 1000 nM in data set [2]; > 1000 nM in data set [3]; > 1000 nM in [4]; > 1000 nM in the data set with Mus musculus [5] (Mus musculus, Plasma); > 1000 nM in data set [8]. The half-maximal inhibitory concentration (IC50) is 370 nM in [10]; > 1000 nM in [11]; > 1000 nM in data set [14]; 7 nM in data set [15]; > 1000 nM in data set [16]; > 1000 nM in data set [17]. For the same compound, the IC50 with Mus musculus [21] (Mus musculus, Plasma) is > 1000 nM; in [22] it was > 1000 nM; in [23], > 1000 nM; in the data set with Mus musculus [24] (Mus musculus, Plasma), > 1000 nM; in data set [25], > 1000 nM; in data set [26], > 1000 nM. In addition, the IC50 in data set [27] is > 10000 nM; in data set [28], > 1000 nM; in data set [29] it was > 10000 nM; in [31], > 10000 nM. This compound yielded a bioavailability in data set [32] of 100%. In addition, the Vd in [33] came to 0.12 L/kg.

As to `CC(C)c1nn(C)c2c(=O)[nH]c(Cc3ccccc3OCCN3CCOCC3)nc12`, the half-maximal inhibitory concentration (IC50) in [15] was determined as 530 nM; in data set [27], 790 nM; in [29], 970 nM; in [31], 7810 nM.

For `CC(C)c1n[nH]c2c(=O)[nH]c(C[C@@H]3CCCC[C@H]3NC(=O)CN3CCCC3)nc12`, the IC50 in data set [15] was 36 nM; in [27], > 10000 nM; in [29], > 10000 nM; in data set [31], > 10000 nM.

What is called Papp is a coefficient for how fast a substance crosses the barrier. In the case of `CC(C)c1[nH]nc2c(=O)[nH]c(C[C@@H]3CCCC[C@H]3NC(=O)NCCCN3CCOCC3)nc12`, in [34], the Papp is 0.7 ×10⁻⁶ cm/s. In addition, the IC50 was 46 nM in data set [15], > 10000 nM in [27], 4200 nM in [29] and > 10000 nM in data set [31].

On to `CC(C)c1n[nH]c2c(=O)[nH]c(C[C@@H]3CCCC[C@H]3Nc3ncccn3)nc12`, for which the IC50 is > 10000 nM in [1]; > 10000 nM in data set [2]; 8400 nM in [3]; > 10000 nM in data set [4]; > 10000 nM in data set [8]; 1500 nM in data set [10]. Also, the IC50 in data set [11] was > 10000 nM; in data set [14], > 10000 nM; in data set [15], 35 nM; in data set [16], > 10000 nM; in data set [17], > 10000 nM; in data set [22], > 10000 nM. Besides, the IC50 in [23] was > 10000 nM; in data set [25] it was > 10000 nM; in data set [26], > 10000 nM; in [27], 7700 nM; in data set [28] it was > 10000 nM; in data set [29], 4400 nM. Further, the IC50 in data set [31] is 9800 nM.

With `CC(C)c1[nH]nc2c(=O)[nH]c(C[C@@H]3CCCC[C@H]3NC(=O)CC3CCOCC3)nc12`, the half-inhibitory concentration (IC50) was 19 nM in data set [15], > 10000 nM in data set [27], 3100 nM in data set [29] and > 10000 nM in data set [31].

For `CC(C)c1n[nH]c2c(=O)[nH]c(Cc3ccccc3OC(F)(F)F)nc12`, the Papp in data set [34] came out at 10.8 ×10⁻⁶ cm/s. Further, the half-inhibitory concentration (IC50) in data set [15] turned out to be 56 nM; in data set [27] it was 2500 nM; in data set [29], 520 nM; in data set [31], 2650 nM.

For the compound `CC(C)c1n[nH]c2c(=O)[nH]c(Cc3ccccc3OCc3ccccc3)nc12`, the IC50 is 82 nM in data set [15], 1430 nM in [27], 1340 nM in data set [29] and 2630 nM in [31].

As for `CC(C)c1n[nH]c2c(=O)[nH]c(Cc3cccc(Cl)c3)nc12`, the IC50 in data set [27] was determined as 54 nM; in [29] it was 4 nM; in [31], 38 nM.

For the compound `CC(C)c1n[nH]c2c(=O)[nH]c(C[C@@H]3CCCC[C@H]3OCCN3CCOCC3)nc12`, the IC50 in data set [15] is 87 nM; in data set [27] it was > 10000 nM; in data set [29], 2050 nM; in data set [31] it was > 10000 nM.

Consider `Cc1ccc(N[C@@H]2CCCC[C@H]2Cc2nc3c(C(C)C)[nH]nc3c(=O)[nH]2)nn1`, for which the concentration for half-maximal inhibition (IC50) in data set [15] was 23 nM; in [27], > 10000 nM; in data set [29], 7600 nM; in data set [31], > 10000 nM.

The values above are taken from ChEMBL document CHEMBL1138608, “The discovery of potent, selective, and orally bioavailable PDE9 inhibitors as potential hypoglycemic agents” (Bioorg Med Chem Lett, 2009).
